Data from ChEMBL document CHEMBL1201862, “PubChem BioAssay data set” (2004).
Activity calls are given as the source filed them.

Experiments:
HEK293 [1] = test: inhibition of NOD1-driven NF-kB reporter – cell-based, luminescence, uHTS, primary screen (AID 1578); assay type: functional; settings: Homo sapiens
HEK293 [2] = test: cells; assay type: functional, cell-based; settings: Homo sapiens
HEK293 [3] = test: cells; assay type: functional, cell-based; settings: Homo sapiens; remark: listed apart in the source
HEK293 [4] = test: NOD2 signaling inhibitors in MDP-stimulated cells, cell-based, uHTS, luminescence (AID 2001); assay type: functional; settings: Homo sapiens
[5] = target: T1, Replicative DNA helicase DnaB (Mycobacterium tuberculosis, UniProt P9WMR3); test: DnaB intein splicing inhibitors, dose response, biochemical, cell-free fluorescence (AID 449749); assay type: functional
T1 sequence (P9WMR3 whole entry): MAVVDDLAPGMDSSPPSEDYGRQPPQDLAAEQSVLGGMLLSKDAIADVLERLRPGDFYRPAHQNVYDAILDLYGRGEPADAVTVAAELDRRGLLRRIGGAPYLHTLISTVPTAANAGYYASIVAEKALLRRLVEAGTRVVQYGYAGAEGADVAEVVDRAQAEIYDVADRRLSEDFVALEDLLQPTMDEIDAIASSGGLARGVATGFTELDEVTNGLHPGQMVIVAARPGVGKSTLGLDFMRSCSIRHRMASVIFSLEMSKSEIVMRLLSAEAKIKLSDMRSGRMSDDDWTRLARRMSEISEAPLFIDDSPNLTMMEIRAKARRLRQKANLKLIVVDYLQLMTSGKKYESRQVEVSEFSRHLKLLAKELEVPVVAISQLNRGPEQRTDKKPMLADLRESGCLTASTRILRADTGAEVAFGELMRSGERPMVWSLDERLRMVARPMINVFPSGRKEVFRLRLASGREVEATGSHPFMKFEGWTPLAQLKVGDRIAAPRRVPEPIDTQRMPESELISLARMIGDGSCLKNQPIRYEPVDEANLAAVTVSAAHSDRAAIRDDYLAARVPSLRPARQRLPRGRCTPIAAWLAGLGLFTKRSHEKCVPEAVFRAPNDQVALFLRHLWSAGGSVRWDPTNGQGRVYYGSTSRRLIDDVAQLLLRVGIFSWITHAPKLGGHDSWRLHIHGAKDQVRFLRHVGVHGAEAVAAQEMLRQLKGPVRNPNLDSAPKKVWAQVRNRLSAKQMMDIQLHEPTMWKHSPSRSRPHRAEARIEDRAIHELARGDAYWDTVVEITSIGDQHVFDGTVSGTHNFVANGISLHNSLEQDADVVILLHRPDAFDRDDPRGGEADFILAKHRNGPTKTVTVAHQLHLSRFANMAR

Protein RecA = target: T2, Protein RecA (Mycobacterium tuberculosis, UniProt P9WHJ3); test: Fluorescence Cell-Free Homogeneous Dose Retest to Identify Inhibitors of RecA-Intein Splicing Activity. [Related pubchem assays (depositor defined):AID2097, AID2223, AID489010, AID492950]; assay type: functional
T2 sequence (P9WHJ3 whole entry): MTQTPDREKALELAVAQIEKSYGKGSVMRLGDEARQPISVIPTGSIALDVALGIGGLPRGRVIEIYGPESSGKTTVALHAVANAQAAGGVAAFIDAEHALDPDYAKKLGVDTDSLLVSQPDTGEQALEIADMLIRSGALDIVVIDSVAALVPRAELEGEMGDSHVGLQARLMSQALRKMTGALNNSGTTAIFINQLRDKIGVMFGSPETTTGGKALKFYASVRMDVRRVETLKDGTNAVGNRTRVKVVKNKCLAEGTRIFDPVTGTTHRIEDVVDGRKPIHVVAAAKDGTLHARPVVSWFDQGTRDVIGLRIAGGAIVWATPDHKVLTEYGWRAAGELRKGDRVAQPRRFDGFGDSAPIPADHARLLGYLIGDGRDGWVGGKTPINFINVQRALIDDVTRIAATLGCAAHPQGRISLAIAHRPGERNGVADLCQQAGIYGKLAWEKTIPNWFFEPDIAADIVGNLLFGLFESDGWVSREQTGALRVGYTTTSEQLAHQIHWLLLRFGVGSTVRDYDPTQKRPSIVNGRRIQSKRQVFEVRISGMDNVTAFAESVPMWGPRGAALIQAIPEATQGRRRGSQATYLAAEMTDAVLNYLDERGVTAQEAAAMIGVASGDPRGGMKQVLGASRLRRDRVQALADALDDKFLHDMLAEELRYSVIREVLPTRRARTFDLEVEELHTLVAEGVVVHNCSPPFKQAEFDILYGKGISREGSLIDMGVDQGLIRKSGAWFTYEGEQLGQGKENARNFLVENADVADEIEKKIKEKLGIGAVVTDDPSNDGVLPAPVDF

HEK293 [6] = test: cells; settings: Homo sapiens
HEK293 [7] = test: cells; settings: Homo sapiens; remark: listed apart in the source
[8] = target: T3, Tyrosine-protein phosphatase non-receptor type 7 (Homo sapiens, UniProt P35236); assay type: functional
T3 sequence (P35236 whole entry): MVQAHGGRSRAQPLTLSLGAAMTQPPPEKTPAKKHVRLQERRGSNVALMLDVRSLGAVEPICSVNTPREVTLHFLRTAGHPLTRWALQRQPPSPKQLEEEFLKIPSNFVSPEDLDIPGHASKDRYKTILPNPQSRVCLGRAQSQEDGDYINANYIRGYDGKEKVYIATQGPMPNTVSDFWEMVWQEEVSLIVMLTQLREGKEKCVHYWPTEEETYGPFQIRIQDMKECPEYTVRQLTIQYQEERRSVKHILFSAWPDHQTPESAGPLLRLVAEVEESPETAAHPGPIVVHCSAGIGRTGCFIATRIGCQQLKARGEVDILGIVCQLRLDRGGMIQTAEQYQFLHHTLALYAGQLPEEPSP

[9] = target: Glyceraldehyde-3-phosphate dehydrogenase (Homo sapiens, UniProt P04406)
Glyceraldehyde-3-phosphate dehydrogenase, sequence (P04406 whole entry): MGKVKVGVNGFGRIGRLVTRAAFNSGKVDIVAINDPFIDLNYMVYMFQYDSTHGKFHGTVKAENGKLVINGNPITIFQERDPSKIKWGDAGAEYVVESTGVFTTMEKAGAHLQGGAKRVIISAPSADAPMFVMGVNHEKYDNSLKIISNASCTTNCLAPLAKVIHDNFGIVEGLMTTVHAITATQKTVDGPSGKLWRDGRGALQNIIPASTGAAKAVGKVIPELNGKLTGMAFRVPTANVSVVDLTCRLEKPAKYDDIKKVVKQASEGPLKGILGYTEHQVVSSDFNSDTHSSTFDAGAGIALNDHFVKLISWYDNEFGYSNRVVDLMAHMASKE

[10] = target: Heat shock cognate 71 kDa protein (Homo sapiens, UniProt P11142); test: In Vitro Hsc70 Dose Response Fluorescence Polarization Assay. [Related pubchem assays: 1072 ]
Heat shock cognate 71 kDa protein, sequence (P11142 whole entry): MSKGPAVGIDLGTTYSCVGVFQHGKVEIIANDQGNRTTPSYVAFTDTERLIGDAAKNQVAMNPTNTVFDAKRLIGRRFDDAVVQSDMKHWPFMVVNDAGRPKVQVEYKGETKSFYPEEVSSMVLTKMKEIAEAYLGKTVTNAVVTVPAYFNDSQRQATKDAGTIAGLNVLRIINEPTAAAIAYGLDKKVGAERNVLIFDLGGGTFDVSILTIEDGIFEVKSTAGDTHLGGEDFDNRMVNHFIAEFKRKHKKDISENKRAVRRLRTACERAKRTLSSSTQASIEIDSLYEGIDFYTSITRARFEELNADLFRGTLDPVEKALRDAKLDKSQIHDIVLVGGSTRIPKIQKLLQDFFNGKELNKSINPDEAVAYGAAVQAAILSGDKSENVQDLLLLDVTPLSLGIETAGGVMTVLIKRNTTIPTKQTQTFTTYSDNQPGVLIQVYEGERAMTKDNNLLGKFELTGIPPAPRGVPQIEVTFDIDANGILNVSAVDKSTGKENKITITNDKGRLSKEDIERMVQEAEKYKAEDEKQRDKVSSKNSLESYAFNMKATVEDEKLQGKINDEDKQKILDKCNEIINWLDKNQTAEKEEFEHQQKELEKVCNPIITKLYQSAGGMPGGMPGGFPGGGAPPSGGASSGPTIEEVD

[11] = target: Heat shock 70 kDa protein 1A (Homo sapiens, UniProt P0DMV8); test: inhibition of Hsp70 binding activity – biochemical, fluorescence polarization, SAR follow-up (AID 1072)
Heat shock 70 kDa protein 1A, sequence (P0DMV8 whole entry): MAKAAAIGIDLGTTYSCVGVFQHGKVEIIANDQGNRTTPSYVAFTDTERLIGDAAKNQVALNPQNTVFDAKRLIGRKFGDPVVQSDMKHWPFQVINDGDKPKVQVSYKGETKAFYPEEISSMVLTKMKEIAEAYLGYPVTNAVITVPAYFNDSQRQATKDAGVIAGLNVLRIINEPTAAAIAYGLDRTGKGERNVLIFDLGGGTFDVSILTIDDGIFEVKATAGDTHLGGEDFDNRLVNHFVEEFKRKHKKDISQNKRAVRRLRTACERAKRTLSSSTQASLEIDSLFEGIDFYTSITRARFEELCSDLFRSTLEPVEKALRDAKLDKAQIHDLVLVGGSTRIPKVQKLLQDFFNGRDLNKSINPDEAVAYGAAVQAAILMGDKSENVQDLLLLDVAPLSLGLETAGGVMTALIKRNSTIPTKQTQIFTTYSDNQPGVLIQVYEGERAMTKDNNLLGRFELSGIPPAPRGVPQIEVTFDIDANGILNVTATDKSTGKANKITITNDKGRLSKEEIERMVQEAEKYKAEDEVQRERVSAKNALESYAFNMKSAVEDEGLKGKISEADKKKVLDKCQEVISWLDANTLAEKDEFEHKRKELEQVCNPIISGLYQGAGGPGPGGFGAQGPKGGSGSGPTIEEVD

[12] = target: T4, Dual specificity protein phosphatase 6 (Rattus norvegicus, UniProt Q64346)
T4 sequence (Q64346 whole entry): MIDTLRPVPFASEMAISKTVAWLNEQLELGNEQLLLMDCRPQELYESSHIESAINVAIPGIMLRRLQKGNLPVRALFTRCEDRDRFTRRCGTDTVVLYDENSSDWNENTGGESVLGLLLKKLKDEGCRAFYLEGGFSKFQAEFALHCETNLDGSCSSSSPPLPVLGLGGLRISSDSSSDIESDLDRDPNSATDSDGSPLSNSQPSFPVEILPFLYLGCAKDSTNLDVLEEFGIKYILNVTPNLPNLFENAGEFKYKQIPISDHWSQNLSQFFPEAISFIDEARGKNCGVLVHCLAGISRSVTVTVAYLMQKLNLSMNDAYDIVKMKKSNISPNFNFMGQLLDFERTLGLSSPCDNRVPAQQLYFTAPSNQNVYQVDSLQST

[13] = target: T4, Dual specificity protein phosphatase 6; assay type: functional
[14] = THP-1 cell cytotoxicity, dose response, cytotoxicity control for non-replicating M. tuberculosis project (AID 489025); assay type: functional
[15] = Vero E6 cell cytotoxicity, dose response, cytotoxicity control for non-replicating M. tuberculosis project, secondary assay (AID 492998); assay type: functional, VeroE6; settings: Vero C1008
[16] = target: T5, Microphthalmia-associated transcription factor (Homo sapiens, UniProt O75030); test: reducers of TRPM1 reporter luminescence, concentration series – cell-based, SK-MEL-5, cherry-picked, set 3, MITF inhibitor project, dose response (AID 493073); assay type: functional;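 note: SK-MEL-5 melanoma cells with luciferase driven by the MITF target TRPM1 promoter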
T5 sequence (O75030 whole entry): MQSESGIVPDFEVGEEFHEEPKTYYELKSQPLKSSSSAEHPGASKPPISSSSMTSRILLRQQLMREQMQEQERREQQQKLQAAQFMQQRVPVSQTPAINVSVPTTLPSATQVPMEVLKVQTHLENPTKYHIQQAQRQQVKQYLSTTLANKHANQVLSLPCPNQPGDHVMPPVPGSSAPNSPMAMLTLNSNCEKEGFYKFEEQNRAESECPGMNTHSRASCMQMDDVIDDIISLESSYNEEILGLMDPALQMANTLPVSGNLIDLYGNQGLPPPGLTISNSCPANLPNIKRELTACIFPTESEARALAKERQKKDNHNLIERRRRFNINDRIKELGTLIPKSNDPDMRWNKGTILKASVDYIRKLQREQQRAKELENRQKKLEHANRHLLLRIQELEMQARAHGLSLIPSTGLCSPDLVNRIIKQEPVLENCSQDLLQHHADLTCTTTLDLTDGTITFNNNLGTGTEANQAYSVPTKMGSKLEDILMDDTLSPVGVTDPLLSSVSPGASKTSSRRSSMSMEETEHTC

cells = assay type: functional
HEK293 [17] = test: HEK293T cell viability loss, resazurin readout – resazurin fluorescence, cytotoxicity control for NF-kB activator project, SAR follow-up (AID 493251); assay type: functional, cell-based; settings: Homo sapiens
Jurkat = test: SAR Analysis of small molecule inhibitors of T-cell specific antigen receptor-induced NF-kB activation in a Jurkat cell line using a luminescence assay - Set 2. [Related pubchem assays (depositor defined):AID435003, AID435012, AID465]; assay type: functional, cell-based
HEK293 [18] = test: SAR Analysis of small molecule inhibitors of T-cell specific antigen receptor-induced NF-kB activation in a HEK-293T cell line using a luminescence assay - Set 2. [Related pubchem assays (depositor defined):AID435003, AID435012, AID489026]; assay type: functional, cell-based
[19] = decrease of insulin promoter-GFP reporter – imaging, high-content screening, mouse beta cells (AID 1628); assay type: functional; settings: MIN6
BJ [20] = test: BJ-TERT fibroblast viability loss – cell-based, RAS-independent, luminescence, dose response (AID 1933); assay type: functional; settings: Homo sapiens
[21] = MIN6 cell viability loss – mouse insulinoma, cytotoxicity control, dose response (AID 2122); assay type: functional;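 note: confirmatory high-throughput counterscreen run to flag cytotoxic compounds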
BJ [22] = test: cells; assay type: functional, cell-based; settings: Homo sapiens
[23] = DRD fibroblast viability loss – cell-based, non-viral oncogenic, luminescence, dose response (AID 1934); assay type: functional; settings: Homo sapiens
[24] = Luminescence Cell-Based Dose Retest to Confirm Inhibitors of Cancer Stem Cells. [Related pubchem assays (depositor defined):AID2717, AID2721]; assay type: functional; settings: Homo sapiens
INS1 = test: INS-1E survival protection against cytokine death – cell-based, luminescence, retest, dose response (AID 449756); assay type: functional; settings: Rattus norvegicus;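 note: cell death triggered by IL-1 beta plus TNF-alpha plus IFN-gamma mixture; protective hits raise ATP signal compared with cytokine alone wells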
[25] = blockers of HIV-1 envelope-mediated cell-cell fusion – cherry-pick, dose response (AID 652057); assay type: functional, cell-based
[26] = blockers of HIV-1 ZM109 envelope-driven cell-cell fusion – HeLa effector, CEM target cells, luciferase, cherry-pick, dose response (AID 652058); assay type: functional, cell-based;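 note: luciferase signal from HIV-1 Env mediated cell-cell fusion of effector and target cells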
[27] = off-target signal loss in HeLa-CEM21 co-culture – HeLa F-luc CTL cells, cherry-picked, counter-screen for HIV-1 Env fusion inhibitor project, dose response (AID 652040); assay type: functional, cell-based;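 note: potency for signal decrease marking cytotoxic or nonspecific inhibition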
[28] = HIV-1 AD8 envelope cell-cell fusion blockers – cherry-pick, dose response (AID 652062); assay type: functional, cell-based;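 note: luciferase signal from cell-cell fusion driven by HIV-1 clade B AD8 Env; potency is for inhibitors of fusion seen as a drop in luminescence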
[29] = target: Dual specificity tyrosine-phosphorylation-regulated kinase 1A (Rattus norvegicus, UniProt Q63470); assay type: biochemical, Homo sapiens

O=C(CCl)Nc1cc(S(=O)(=O)N2CCCCCC2)ccc1Cl
EC50 (HEK293 [1]): 9.38 µM (active)
IC50 (HEK293 [2]): 7.86 µM (active)
IC50 (HEK293 [3]): > 20 µM (inactive)
IC50 (HEK293 [4]): > 20 µM (inactive)
AC50 [5]: 9.12 µM (active)
EC50 (Protein RecA): 2.03 µM (active)
EC50 (HEK293 [6]): > 59.6 µM (inactive)
EC50 (HEK293 [7]): > 59.6 µM (inactive)

Cc1cc([N+](=O)[O-])cc2c1NC(C(=O)O)C1CC=CC21 (stereo not drawn)
IC50 [8]: > 100 µM (not active)
IC50 [9]: > 100 µM (not active)
IC50 [10]: 117 µM (active)
IC50 [11]: 24.3 µM (active)
IC50 [12]: > 100 µM (inactive)
IC50 [13]: > 100 µM (inactive)

Cc1cccc(NC(=O)c2ccc([N+](=O)[O-])o2)c1C
CC50 [14]: 20.5 µM (active)
CC50 [15]: 8.76 µM (active)
AC50 [16]: 14.8 µM (active)
IC50 (cells): 10.8 µM (active)
IC50 (HEK293 [17]): > 80 µM (inactive)
IC50 (Jurkat; Homo sapiens, Jurkat): 17.8 µM (active)
IC50 (Jurkat; jurkat): 14.6 µM (active)
IC50 (HEK293 [18]; Homo sapiens, HEK293): 69.2 µM (inactive)
IC50 (HEK293 [18]; hek293): 63.1 µM (inactive)

COc1ccc(C)cc1NS(=O)(=O)c1ccc(NC(=O)CN(c2cc([N+](=O)[O-])ccc2C)S(C)(=O)=O)cc1
IC50 [19]: 1.1 µM (active)
EC50 (BJ [20]): 21 µM (active)
IC50 [21]: 1.2 µM (active)
EC50 (BJ [22]): 2.75 µM (active)
EC50 [23]: 19.7 µM (active)
AC50 [24]: 1.8 µM (active)
AC50 (INS1): 0.846 µM (active)

CCN1C(=O)[C@H]2[C@@H](c3ccc(C)cc3)N3C(=O)N(c4cccc(Cl)c4)C(=O)[C@@]3(CC)[C@H]2C1=O
AC50 [25]: 2.33 µM (active)
AC50 [26]: 2.06 µM (active)
AC50 [27]: 3.98 µM (active)
AC50 [28]: 4.82 µM (active)
EC50 (HEK293 [6]): > 59.6 µM (inactive)
EC50 (HEK293 [7]): > 59.6 µM (inactive)

O=C(O)C1Nc2ccccc2C2C=CCC12 (stereo not drawn)
IC50 [8]: 6.05 µM (active)
IC50 [9]: > 100 µM (not active)
IC50 [10]: > 100 µM (not active)
IC50 [11]: 7.14 µM (active)
IC50 [12]: 50.8 µM (active)
IC50 [13]: 25.2 µM (active)

c1cncc(-c2nc3ccccc3[nH]2)c1
AC50 [29]: > 120 µM (inactive)
